From PMC7095208 (Nature, 2014)

Key:
[1] = tested on: EBOV; conditions: mouse, in vivo
[2] = tested on: RAVV; conditions: mouse, in vivo

Compound: Nc1ncnc2c([C@@H]3N[C@H](CO)[C@@H](O)[C@H]3O)c[nH]c12 [BCX4430, (2S,3S,4R,5R)-2-(4-amino-5H-pyrrolo[3,2-d]pyrimidin-7-yl)-5-(hydroxymethyl)pyrrolidine-3,4-diol]
- protection against lethal EBOV challenge [1]: protected
- protection [2]: 75–100%
- protection (survival vs vehicle) [2]: significant protection
